Data on 16 molecules can be found in ChEMBL document CHEMBL3797054, “Discovery of a series of 8-(2,3-dihydro-1,4-benzoxazin-4-ylmethyl)-2-morpholino-4-oxo-chromene-6-carboxamides as PI3Kβ/δ inhibitors for the treatment of PTEN-deficient tumours” (Bioorg Med Chem Lett, 2016).

Test system in the first data set: not listed separately
The data set can be described thus: physchem. The settings on record: buffer, pH 7.4.
With `CC(c1cc(C(=O)N(C)C)cc2c(=O)cc(N3CCOCC3)oc12)N1CCOc2c(F)cc(F)cc21` (configuration not stated), the logD (commonly the decadic logarithm of the distribution of all forms, ionised or not, between an organic phase and buffer at a given pH) amounted to 2.
Same read-out and setting: the figure for `C[C@@H]1CN(c2cc(=O)c3cc(C(=O)N(C)C)cc(CN(C)c4cc(F)cc(F)c4)c3o2)CCO1` is 2.7.
The same measure, in the same setting: the figure for `CN(C)C(=O)c1cc(CN2CCOc3c(F)cc(F)cc32)c2oc(N3CCOCC3)cc(=O)c2c1` is 2.1.
With `C[C@@H]1CN(c2cc(=O)c3cc(C(=O)N(C)C)cc(CN4CCOc5c(F)cc(F)cc54)c3o2)CCO1`, the logD worked out at 2.3.
For `CN(C)C(=O)c1cc(CN(CCC#N)c2cc(F)cc(F)c2)c2oc(N3CCOCC3)cc(=O)c2c1`, the logD is 1.8.
On the same count and under the same terms, the figure for `C[C@@H]1CN(c2cc(=O)c3cc(C(=O)N(C)C)cc(CN4CCOc5c(F)cccc54)c3o2)CCO1` is 2; for `CN(C)C(=O)c1cc(CN2CCOc3ccc(F)cc32)c2oc(N3CCOCC3)cc(=O)c2c1` it is 1.9; for `C[C@@H]1CN(c2cc(=O)c3cc(C(=O)N4CCOCC4)cc(CN4CCOc5ccc(F)cc54)c3o2)CCO1` it is 2.
As to `C[C@@H]1CN(c2cc(=O)c3cc(C(=O)N(C)C)cc(CN4CCOc5ccc(F)cc54)c3o2)CCO1`, the logD was found to be 2.3.
The same measure, in the same setting: the figure for `CN(C)C(=O)c1cc(CN(CC#N)c2cc(F)cc(F)c2)c2oc(N3CCOCC3)cc(=O)c2c1` is 1.5; for `CN(C)C(=O)c1cc(CN2CCOc3c(F)cccc32)c2oc(N3CCOCC3)cc(=O)c2c1` it is 1.7; for `COCCN(Cc1cc(C(=O)N(C)C)cc2c(=O)cc(N3CCO[C@H](C)C3)oc12)c1cc(F)cc(F)c1` it is 2.2.
Consider `COCCN(Cc1cc(C(=O)N(C)C)cc2c(=O)cc(N3CCOCC3)oc12)c1cc(F)cc(F)c1`, for which the logD came to 2.1. This logD and that of the molecule before are within 0.2 log units of each other.

Test system in a further data set: not listed separately
Description: Volume of distribution at steady state in hairy mouse blood at 5 umol/kg, iv and 30 umol/kg, po. As to conditions: read-out: Vdss. It counts as ADME, organism-based.
In the case of `CN(C)C(=O)c1cc(CN2CCOc3c(F)cccc32)c2oc(N3CCOCC3)cc(=O)c2c1`, the Vd was 1.9 L/kg.

Test system in the next data set: not listed separately
Description: Oral bioavailability in dog blood at 10 umol/kg. It counts as ADME, organism-based, Canis lupus familiaris.
Details: not given
Take `CN(C)C(=O)c1cc(CN2CCOc3c(F)cccc32)c2oc(N3CCOCC3)cc(=O)c2c1`: the bioavailability (in general, dose-corrected exposure relative to a reference, in per cent) stood at 63%.

Test system in a further data set: not listed separately
The data set can be described thus: Clearance in hairy mouse blood at 5 umol/kg, iv and 30 umol/kg, po. It counts as ADME, organism-based.
Details: not given
Consider `CN(C)C(=O)c1cc(CN2CCOc3c(F)cccc32)c2oc(N3CCOCC3)cc(=O)c2c1`, for which the clearance came to 49 mL/min/kg.

Test system in another data set: not listed separately
The data set can be described thus: AUC in hairy mouse at 30 umol/kg, po. It counts as ADME, organism-based. The settings on record: in vivo.
On to `CN(C)C(=O)c1cc(CN(C)c2cc(F)cc(F)c2)c2oc(N3CCOCC3)cc(=O)c2c1`, for which the AUC (commonly concentration integrated over time) is 4.9 µM·h.
The same measure, in the same setting: the figure for `C[C@@H]1CN(c2cc(=O)c3cc(C(=O)N(C)C)cc(CN(C)c4cc(F)cc(F)c4)c3o2)CCO1` is 15.3 µM·h.
Regarding `CN(C)C(=O)c1cc(CN2CCOc3c(F)cc(F)cc32)c2oc(N3CCOCC3)cc(=O)c2c1`, the exposure (AUC) was 4.4 µM·h.
The molecule `C[C@@H]1CN(c2cc(=O)c3cc(C(=O)N(C)C)cc(CN4CCOc5c(F)cccc54)c3o2)CCO1` showed an area under the curve (AUC) of 7.3 µM·h. This AUC is about 1.7-fold higher than that of the molecule before.
The same measure, in the same setting: the figure for `C[C@@H]1CN(c2cc(=O)c3cc(C(=O)N4CCOCC4)cc(CN4CCOc5c(F)cccc54)c3o2)CCO1` is 1 µM·h; for `C[C@@H]1CN(c2cc(=O)c3cc(C(=O)N4CCOCC4)cc(CN4CCOc5ccc(F)cc54)c3o2)CCO1` it is 2.8 µM·h; for `CN(C)C(=O)c1cc(CN2CCOc3c(F)cccc32)c2oc(N3CCOCC3)cc(=O)c2c1` it is 3.9 µM·h.
`COCCN(Cc1cc(C(=O)N(C)C)cc2c(=O)cc(N3CCOCC3)oc12)c1cc(F)cc(F)c1` showed an AUC of 2.4 µM·h.

The test system of a further data set is Hepatocyte. The data set can be described thus: Intrinsic clearance in mouse hepatocytes assessed per million cells. It counts as ADME, cell-based.
Details: not given
As for `CN(C)C(=O)c1cc(CN2CCOc3c(F)cccc32)c2oc(N3CCOCC3)cc(=O)c2c1`, the hepatocyte CLint turned out to be 21 µL/min/1e6 cells.

Test system in a further data set: not listed separately
Description: Intrinsic clearance in dog hepatocytes assessed per million cells. It counts as ADME, cell-based, Canis lupus familiaris, Hepatocyte.
Details: not given
For the molecule `CN(C)C(=O)c1cc(CN2CCOc3c(F)cccc32)c2oc(N3CCOCC3)cc(=O)c2c1`, the hepatocyte CLint is 4 µL/min/1e6 cells.

Test system in a further data set: not listed separately
Description: in vitro. The settings on record: human, Caco-2.
Take `C[C@@H]1CN(c2cc(=O)c3cc(C(=O)N(C)C)cc(CN(C)c4cc(F)cc(F)c4)c3o2)CCO1`: the Papp A→B (usually the apparent permeability from the apical to the basolateral side of a cell layer) at 2 h, 10 µM stood at 55 ×10⁻⁶ cm/s.
The same measure, in the same setting: the figure for `CN(C)C(=O)c1cc(CN2CCOc3c(F)cc(F)cc32)c2oc(N3CCOCC3)cc(=O)c2c1` is 9 ×10⁻⁶ cm/s; for `C[C@@H]1CN(c2cc(=O)c3cc(C(=O)N(C)C)cc(CN4CCOc5c(F)cc(F)cc54)c3o2)CCO1` it is 25 ×10⁻⁶ cm/s.
The same measure, in the same setting: the figure for `C[C@@H]1CN(c2cc(=O)c3cc(C(=O)N(C)C)cc(CN4CCOc5c(F)cccc54)c3o2)CCO1` is 28 ×10⁻⁶ cm/s; for `C[C@@H]1CN(c2cc(=O)c3cc(C(=O)N4CCOCC4)cc(CN4CCOc5ccc(F)cc54)c3o2)CCO1` it is 11 ×10⁻⁶ cm/s; for `CN(C)C(=O)c1cc(CN2CCOc3c(F)cccc32)c2oc(N3CCOCC3)cc(=O)c2c1` it is 6.5 ×10⁻⁶ cm/s.
On the same count and under the same terms, the figure for `COCCN(Cc1cc(C(=O)N(C)C)cc2c(=O)cc(N3CCO[C@H](C)C3)oc12)c1cc(F)cc(F)c1` is 14 ×10⁻⁶ cm/s; for `COCCN(Cc1cc(C(=O)N(C)C)cc2c(=O)cc(N3CCOCC3)oc12)c1cc(F)cc(F)c1` it is 11 ×10⁻⁶ cm/s.

Test system in another data set: not listed separately
Description: Volume of distribution at steady state in dog blood at 4 umol/kg, iv and 10 umol/kg, po. As to conditions: read-out: Vdss. It counts as ADME, organism-based, Canis lupus familiaris.
In the case of `CN(C)C(=O)c1cc(CN2CCOc3c(F)cccc32)c2oc(N3CCOCC3)cc(=O)c2c1`, the Vd is 1.6 L/kg.

Test system in another data set: not listed separately
The data set can be described thus: Oral bioavailability in hairy mouse blood at 30 umol/kg.
Details: not given
It counts as ADME, organism-based.
`CN(C)C(=O)c1cc(CN2CCOc3c(F)cccc32)c2oc(N3CCOCC3)cc(=O)c2c1`: the bioavailability was determined as 47%.

Test system in a further data set: not listed separately
Description: Clearance in dog blood at 4 umol/kg, iv and 10 umol/kg, po. It counts as ADME, organism-based, Canis lupus familiaris.
Details: not given
With `CN(C)C(=O)c1cc(CN2CCOc3c(F)cccc32)c2oc(N3CCOCC3)cc(=O)c2c1`, the clearance turned out to be 13 mL/min/kg.

Test system in another data set: not listed separately
Description: Intrinsic clearance in human hepatocytes assessed per million cells. It counts as ADME, cell-based, Hepatocyte. The settings on record: read-out: CLH.
Take `CN(C)C(=O)c1cc(CN(C)c2cc(F)cc(F)c2)c2oc(N3CCOCC3)cc(=O)c2c1`: the hepatocyte CLint was less than 5 µL/min/1e6 cells.
The same measure, in the same setting: the figure for `C[C@@H]1CN(c2cc(=O)c3cc(C(=O)N(C)C)cc(CN(C)c4cc(F)cc(F)c4)c3o2)CCO1` is 5 µL/min/1e6 cells.
Still for that read-out and setting: the figure for `CN(C)C(=O)c1cc(CN2CCOc3c(F)cc(F)cc32)c2oc(N3CCOCC3)cc(=O)c2c1` is 7 µL/min/1e6 cells; for `C[C@@H]1CN(c2cc(=O)c3cc(C(=O)N(C)C)cc(CN4CCOc5c(F)cc(F)cc54)c3o2)CCO1` it is 8 µL/min/1e6 cells.
The same measure, in the same setting: the figure for `CN(C)C(=O)c1cc(CN(CCC#N)c2cc(F)cc(F)c2)c2oc(N3CCOCC3)cc(=O)c2c1` is less than 3 µL/min/1e6 cells.
Turning to `C[C@@H]1CN(c2cc(=O)c3cc(C(=O)N(C)C)cc(CN4CCOc5c(F)cccc54)c3o2)CCO1`, the hepatocyte CLint was less than 3 µL/min/1e6 cells.
With `C[C@@H]1CN(c2cc(=O)c3cc(C(=O)N4CCOCC4)cc(CN4CCOc5c(F)cccc54)c3o2)CCO1`, the hepatocyte CLint is less than 3 µL/min/1e6 cells.
As for `CN(C)C(=O)c1cc(CN2CCOc3ccc(F)cc32)c2oc(N3CCOCC3)cc(=O)c2c1`, the hepatocyte CLint worked out at 12 µL/min/1e6 cells.
The same measure, in the same setting: the figure for `C[C@@H]1CN(c2cc(=O)c3cc(C(=O)N4CCOCC4)cc(CN4CCOc5ccc(F)cc54)c3o2)CCO1` is 4 µL/min/1e6 cells.
The same measure, in the same setting: the figure for `C[C@@H]1CN(c2cc(=O)c3cc(C(=O)N(C)C)cc(CN4CCOc5ccc(F)cc54)c3o2)CCO1` is 15 µL/min/1e6 cells.
For the molecule `CN(C)C(=O)c1cc(CN(CC#N)c2cc(F)cc(F)c2)c2oc(N3CCOCC3)cc(=O)c2c1`, the hepatocyte CLint is less than 3 µL/min/1e6 cells.
For `C[C@@H]1CN(c2cc(=O)c3cc(C(=O)N4CCOCC4)cc(CN4CCOc5c(F)cc(F)cc54)c3o2)CCO1`, the hepatocyte CLint was less than 3 µL/min/1e6 cells.
Same read-out and setting: the figure for `CN(C)C(=O)c1cc(CN2CCOc3c(F)cccc32)c2oc(N3CCOCC3)cc(=O)c2c1` is less than 1 µL/min/1e6 cells; for `COCCN(Cc1cc(C(=O)N(C)C)cc2c(=O)cc(N3CCO[C@H](C)C3)oc12)c1cc(F)cc(F)c1` it is 14 µL/min/1e6 cells; for `COCCN(Cc1cc(C(=O)N(C)C)cc2c(=O)cc(N3CCOCC3)oc12)c1cc(F)cc(F)c1` it is 8 µL/min/1e6 cells.
